Experiments:
[1] = test system: midbrain dopaminergic neurons from embryonic mouse; experiment: HN-induced intracellular humanin expression, western blot, primary neurons; type: cell-based; details: HN treatment 24 h (1 μM in Fig 2A), basal humanin undetectable
Method: (§1) Primary mesencephalic cell cultures were prepared using gestational day 13.5 embryos from C57BL/6J mice, as previously described. The mesencephalon was dissected from the embryos and dissociated in a medium containing 0.25% trypsin-EDTA and 0.05% DNase in PBS for 15 min at 37 °C. Tissue samples were mechanically dissociated by gentle pipetting using Pasteur pipettes. After centrifugation at 400 x g for 5 min, the cells were plated in Neurobasal-A medium (Thermo Fisher Scientific, Waltham, MA, USA) supplemented with 2% B27 supplement (Thermo Fisher Scientific), 1× Glutamax (Thermo Fisher Scientific), 5% fetal bovine serum (FBS), 0.36% D-glucose, and 1% Penicillin/Streptomycin (P/S) in poly-L-ornithine/laminin (Sigma-Aldrich)-coated plates. On day 4 in vitro (DIV), the plating medium was replaced, and the neurons were used on DIV 8 for subsequent experiments.
For HN treatment of cells, HN stock solution was first incubated at 37 ℃ with mild stirring for 0.5 h. The solution was then added to the culture medium to achieve a desirable final concentration as described above.
(§2) Mouse brain tissue samples and cells were homogenized in radioimmunoprecipitation assay (RIPA) buffer (Cell Signaling, Danvers, MA, USA) in the presence of a protease and phosphatase inhibitor cocktail (Thermo Fisher Scientific). […] The results were analyzed using the ImageJ densitometry system. […]

[2] = test system: Murine primary dopaminergic neurons; experiment: MPP+ toxicity in primary dopaminergic neurons (MTT, neurite analysis); type: cell-based, mouse
Method: as §1
Following treatment with the aforementioned reagents, the cells were washed and treated with 3-(4,5-dimethylthiazol-2-yl)-2,5-diphenyl-tetrazolium bromide (MTT, Thermo Fisher Scientific). Briefly, the cells were seeded in a 96-well plate at a density of 5 × 10^3 cells/well. After 24 h, a neurotoxin 1-methyl-4-phenylpyridinium (MPP^+) (Sigma-Aldrich) was applied to induce toxicity in neuronal cells. Next, the cells were incubated with MTT for 4 h, and formazan crystals were solubilized using DMSO. Absorbance was measured using a multi-plate reader at a wavelength of 570 nm, and the viability of the cells was recorded as a percentage of the control.

rat organotypic slices = experiment: Ex vivo PD model, organotypic brain slices with 6-OHDA; type: cell-based; details: then 6-OHDA 100 μM, 2 h
Method: Postnatal 5-7-day-old rat pups were used to prepare organotypic slices, as previously described, with minor modifications. The brain of anesthetized pups was aseptically removed. The brain hemispheres were separated and cut sagittally into 350-μm slices using a MacIlwain tissue chopper (MacIlwain, Mickle Laboratory, Cambridge, UK). The slices were transferred to ice-cold Gray's Balanced Salt solution containing CaCl2 (1.5 mM), NaCl (136 mM), KCl (5 mM), KH2PO4 (0.2 mM), MgCl2 (1 mM), MgSO4 (0.2 mM), NaHCO3 (0.2 mM), Na2PO4 (0.08 mM), and glucose (5.5 mM). […]
as §2
The organotypic slice cultures were exposed to 6-OHDA at the tissue surface on DIV 8 to avoid apoptosis due to nutrients and to induce proper maturation. […] Intracellular ATP was quantified using the CellTiter-Glo Luminescent Viability Kit (Promega Corporation, Madison, WI, USA), according to the manufacturer's protocol. Luminescence was measured using a SpectraMax L Microplate Reader (Molecular Devices).

JNK, p38 MAPK, AKT, ERK = experiment: Signaling kinase activation in striatum of MPTP mice, western blot; type: in vivo, mouse; details: MPTP PD mice, intranasal HN 0.1 and 5 mg/kg
Method: A mouse model of PD was generated using the neurotoxin MPTP-HCl (Sigma-Aldrich, St. Louis, MO, USA), as previously described. Seven- to eight-week-old male C57BL/6J mice were injected with MPTP (20 mg/kg/day) for five consecutive days for the subacute delivery of MPTP. The mice in the control group received the same volume of phosphate buffer saline (PBS).
For intranasal HN treatment, the synthetic HN peptide was delivered according to a procedure reported by Capsoni et al. The synthetic HN peptide was diluted in ddH2O to a concentration of 0.1 and 5 mg/kg for mice (total volume of 40 μL) at 37 ℃ with mild stirring. The mice were held firmly in one hand in a supine position with their head at 90°. Synthetic HN was administered in the form of 5-μL drops over 20 min in alternating nostrils every 3 min. After administration, the heads of the mice were held in the same position to prevent loss of the applied solution from the nares.
as §2, with “Scientific). The samples were sonicated on ice, and the supernatant was collected after centrifugation at 4°C at 10,000 g for 5 min.” for “Scientific).”

[3] = HN pre-treatment 12 h, then MPP+ 100 μM 24 h, dose-dependent

Substance: humanin (MAPRGFSCLLLLTSEIDLPVKRRA; Humanin; UniProt Q8IVG9 1-24, looked up) [HN, mitochondria-derived peptide encoded by the mitochondrial genome, synthesized by Fmoc-based SPPS at GL Biochem]
- intracellular humanin expression [1]: induced its intracellular expression in a dose-dependent manner
- neurite number ([2]; HN 1 μM versus DMSO): increased neurite number
- neurite loss induced by MPP+ [2, 3]: rescued the neurite loss and neuronal death
- neuronal death induced by MPP+ (viability, MTT) [2, 3]: rescued the neurite loss and neuronal death
- average length of all sprouting neurites per neuron ([2]; HN-treated versus DMSO-treated neurons, slightly higher): not statistically significant
- mitochondrial biogenesis markers PGC-1α and NRF1, western blot (rat organotypic slices; HN pre-treatment 1 μM, 24 h): stimulated mitochondrial biogenesis
- ATP levels (CellTiter-Glo luminescence) (rat organotypic slices; HN pre-treatment 24 h, 0.1 or 1 μM): effectively inhibited significant depletion of ATP levels
- activation of JNK and p38 MAPK in striatum (JNK, p38 MAPK, AKT, ERK): inhibited the activation of JNK and p38 MAPK
- activation of AKT and ERK in brain tissue (JNK, p38 MAPK, AKT, ERK; dose-dependent): promoted the activation of AKT and ERK

Reference: PMC10283052, “Intranasal delivery of mitochondrial protein humanin rescues cell death and promotes mitochondrial function in Parkinson's disease” (Theranostics, 2023)
